Measurements as given in patent EP0031104A1, “Thiazolidine compounds, processes for their preparation and pharmaceutical compositions containing them” (SANTEN PHARMACEUTICAL CO., LTD., priority 1979, dated 1981).
Read-outs that look alike come from different tables or passages of the source.

Key:
[1] = molecular target: T1, aldose reductase (Rattus norvegicus, UniProt P07943); assay: Aldose reductase inhibition (optical density at 340 nm, Kinoshita's method); assay type: biochemical
T1 construct: Aldose reductase is purified from rat lenses; from tissue; host or cells: rat lens
Experimental: Aldose reductase is purified from rat lenses according to the method of Hoyman et al. [J. Biol. Chem., 240, 877 (1965)]. Action of the compounds (I) of this invention is evaluated by measurement of optical density according to the J.H. Kinoshita's method [Invest.

[2] = Acute toxicity test; details: mouse, in vivo, iv
Experimental: The male ddy-std. strain mice (4 weeks of age, weighing 19-21g) were placed in a breeding room of constant temperature and humidity (23+1°C, 55+5%) and fed freely pellet diet (CE-2, Clea Japan, Inc.) and water ad. libitum for a week. The mice showing the normal growth were selected for the experiment.
Test compounds are dissolved in distilled water and administered (i.v.) in a dose of 0.5ml/20g body weight.

[3] = aldose reductase purified from rat lenses, pH 6.2, DL glyceraldehyde, NADPH, read-out: IC50(M) Molar concentration of a compound producing 50% inhibition of aldose reductase

| Compound | IC50 [1, 3] [M] | IC50 [1] [M] | LD50 ([2]; male ddy-std. strain mice, dissolved in distilled water) [mg/kg] | LD50 [2] [mg/kg] |
| --- | --- | --- | --- | --- |
| O=C(O)CCCCCCCC(=O)N1C(c2cccc([N+](=O)[O-])c2)SC[C@H]1C(=O)O (stereo partly drawn) [compound 22] | 8.2e-10 |  |  |  |
| O=C(O)[C@@H]1CSC(c2cccc([N+](=O)[O-])c2)N1C(=O)CCCCCCCC(=O)N1C(c2cccc([N+](=O)[O-])c2)SC[C@H]1C(=O)O (stereo partly drawn) [compound 47, (4R,4'R)-3,3'-(nonanedioyl)bis-[2-(3-nitrophenyl)-4-thiazolidinecarboxylic acid]] |  | 1.6e-10 | 1000 to 1500 |  |
| N#Cc1cccc(C2SC[C@@H](C(=O)O)N2C(=O)CCCCCCCCC(=O)N2C(c3cccc(C#N)c3)SC[C@H]2C(=O)O)c1 (stereo partly drawn) [compound 56] | 1.7e-09 |  |  | 1000 to 1500 |
| O=C(O)[C@@H]1CSC(c2cccc([N+](=O)[O-])c2)N1C(=O)CCCCCCCCC(=O)N1C(c2cccc([N+](=O)[O-])c2)SC[C@H]1C(=O)O (stereo partly drawn) [compound 57] |  | 5.4e-09 |  |  |
